Laboratory results taken from article PMC4409337, “Immucillins Impair Leishmania (L.) infantum chagasi and Leishmania (L.) amazonensis Multiplication In Vitro” (PLoS ONE, 2015).

Assays:
[1] = system: L. (L.) infantum chagasi promastigotes; test: Promastigote multiplication in chemically defined RPMI medium; assay type: cell-based, Leishmania (L.) infantum chagasi
Experimental: Stock solutions (20 mM) of immucillins IA […] prepared using Milli-Q purified water. Log phase promastigotes of L. (L.) infantum chagasi and L. […] Promastigotes were recorded in a Neubauer chamber after 24, 48, 72 and 96 hours of incubation at 26°C. […] We also assayed the possibility of reversing the inhibitory effect of IA in RPMI medium by the addition of adenosine to the culture medium. The concentration of adenosine in Schneider s insect serum supplemented medium was assessed by HPLC using a C-18 reverse-phase column as described.

[2] = Macrophage viability and cytotoxicity (Trypan Blue); details: female, BALB/c, mouse, peritoneal macrophages
Experimental: (§1) Alternatively, the immucillins were added at 0, 24 and 48 h and viability assessed after 72h. […] The amastigote growth was assessed 24 h after the last drug addition, on 200 cells in Giemsa stained coverslips and expressed as phagocytic index = percent of infected macrophages x average number of intracellular amastigotes. […] All experiments with mice were reviewed and approved by the Animal Care and Use Committee of the Instituto de Biofísica Carlos Chagas Fo.-UFRJ (CAUAP-CONCEA, Brazil, IMPPG-016) and were performed according to the guidelines of the National Institutes of Health, USA. We made all efforts in order to minimize animal suffering.

[3] = system: L. (L.) amazonensis promastigotes; test: In vitro growth of promastigotes in FBS supplemented Schneider's insect medium; assay type: cell-based, Leishmania (L.) amazonensis; details: Leishmania amazonensis
Description: The strain of Leishmania (L.) infantum chagasi MHOM/BR/1974/PP75 was obtained from the Leishmania Type Culture Collection (Fundacão Oswaldo Cruz, Rio de Janeiro, RJ, Brazil) and the strain of Leishmania (L.) amazonensis (MHOM/BR/1975/Josefa) was kindly given by Professor Rosâ[…] from Universidade Federal do Rio de Janeiro. Promastigotes were maintained by weekly transfers in screw-capped glass tubes containing Schneider's insect medium (Sigma Aldrich, MO, USA), pH 7.0, supplemented with 10% Fetal Bovine Serum (FBS) at 26°C. Stock solutions (20 mM) of immucillins IA […] prepared using Milli-Q purified water. Log phase promastigotes of L. (L.) infantum chagasi and L. […] Promastigotes were recorded in a Neubauer chamber after 24, 48, 72 and 96 hours of incubation at 26°C. […] We also assayed the possibility of reversing the inhibitory effect of IA in RPMI medium by the addition of adenosine to the culture medium. The concentration of adenosine in Schneider s insect serum supplemented medium was assessed by HPLC using a C-18 reverse-phase column as described.

[4] = system: intracellular amastigotes of L. (L.) infantum chagasi; test: Replication of intracellular amastigotes in infected peritoneal macrophages (phagocytic index); assay type: cell-based, Leishmania (L.) infantum chagasi
Experimental: as §1, with “Alternatively, the immucillins were added at 0, 24 and 48 h and viability assessed after 72h.” left out

[5] = target: T1, Nucleoside hydrolase NH36 (Leishmania donovani, UniProt Q8WQX2); test: Ki determination: inhibition of NH36 activity by immucillins; assay type: biochemical, Leishmania (L.) donovani; details: 10 mM inosine as substrate, 0.5 nM NH36, pH 7.4, room temperature
T1 sequence (Q8WQX2 1-314): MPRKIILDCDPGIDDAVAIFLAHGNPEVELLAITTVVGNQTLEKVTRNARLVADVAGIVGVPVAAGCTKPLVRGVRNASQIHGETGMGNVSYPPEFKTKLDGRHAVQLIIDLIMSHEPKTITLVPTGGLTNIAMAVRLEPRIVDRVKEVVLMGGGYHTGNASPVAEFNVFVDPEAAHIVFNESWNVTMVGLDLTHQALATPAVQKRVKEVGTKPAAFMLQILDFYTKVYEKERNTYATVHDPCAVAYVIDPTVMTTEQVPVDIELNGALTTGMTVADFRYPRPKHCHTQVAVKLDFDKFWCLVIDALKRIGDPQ
Experimental: BL21DE3 E.coli were transformed with the synthetic plasmid pET 28b encoding the gene of NH36 of Leishmania (L.) donovani (EMBL, Genbank and DDJB data bases, access number AY007193) with a His6tag at the C-terminal. Expression was induced with 0.5 mM IPTG and overnight incubation at 20°C. Purification of NH36 was performed on a column of Ni-NTA Superflow resin (Qiagen, USA) eluted by a stepwise imidazole gradient and monitored by SDS-polyacrylamide gel electrophoresis and protein assay. The extinction coefficient of NH36 is 21.437 mM^-1 cm^-1 at 280 nm, as calculated with the ProtParam program from ExPASy, and was used to estimate protein concentration (http://ca.expasy.org/seqanalref/). The yield of NH36 after purification was 11.87 mg per Liter of bacterial growth culture. Non-specific His-proteins with weak interactions were eluted with 50–100 mM imidazole (S1 Fig). The purified NH36 started to elute with 150 mM imidazole. We used 250 mM of imidazol in elution buffer for purification of NH36.
The reaction mixtures contained 10 mM inosine as substrate, 50 mM Hepes (pH 7.4), 100 mM KCl, 5 mM DTT and 1 unit XOD. The hydrolysis of inosine to hypoxanthine and ribose was followed by continuous reading of optical absorbance at 293 nm, using variable concentrations of inhibitors in a CARY 300UV-visible spectrophotometer. Controls without enzyme and without inhibitors were included in all inhibition assays. The inhibition constant for each immucillin was obtained, using GraFit 5 (Erithacus Software), by fitting initial rates with variable inhibitor concentrations to the equation (vi/v0 = [S] / Km + [S] + Km[I] / Ki), where v i is the initial rate in the presence of the inhibitor, v 0 is the initial rate in the absence of the inhibitor, K m is the Michaelis constant for inosine, [S] and [I] are inosine and inhibitor concentrations, respectively, and Ki is the inhibition constant.

[6] = system: L. (L.) infantum chagasi promastigotes; test: Transmission electron microscopy of treated promastigotes; assay type: cell-based, Leishmania (L.) infantum chagasi; details: 10 μM, 72 h
Description: The cells were washed with Milli Q water, dehydrated in increasing concentration of acetone and embedded in Epon (1: 1) (PolyBed 812). The ultrathin sections were obtained, contrasted with 5% uranyl acetate and lead citrate and observed under a Joel 1200 electron microscope.

IC50 ([1]; Leishmania infantum, RPMI medium lacking nucleosides or nucleobases, 72 h): 75 µM | EC50 ([4]; Leishmania infantum, Peritoneal macrophage, drugs (0.5–10 μM) added at 0 h, incubation 24 h, linear interpolation, read-out: EC50 (CI 95%)): 2390 nM | Ki [5]: 80 nM
Compound: Nc1ncnc2c(C3N[C@H](CO)[C@@H](O)[C@H]3O)c[nH]c12 (stereo partly shown) [IA]
inhibition at 10 µM ([1]; Leishmania infantum, 10 μM, 72 h, compared to RPMI with no addition): 38% | inhibition at 50 µM ([1]; Leishmania infantum, 50 μM, 72 h, compared to RPMI with no addition): 46% | reversal of growth inhibition by adenosine ([1]; RPMI with 50 μM IA and 50-500 μM adenosine, 72h): can be reversed by the presence of exogenous adenosine | CC50 at 48 h [2]: 900 µM | inhibition at 500 µM ([3]; 500 μM, after 96 h of culture, read-out: percent inhibition on L. (L.) amazonensis replication): 76% | IC50 ([3]; single addition at 0 h, evaluated after 48 hours, 26°C, read-out: IC50 (CI 95%) on L. (L.) amazonensis promastigotes in vitro growth): 48.7 µM | reduction in the number of intracellular amastigotes ([4]; 10 μM added daily at 0, 24 and 48 h): 95% | decrease of intracellular amastigote parasite load ([4]; low micromolar concentrations, single to daily protocol): 74–95% | reduction in the number of intracellular amastigotes ([4]; single 10 μM dose at 0 h, compared to untreated controls): 74% | effect on cellular ultrastructure of promastigotes [6]: global alterations on their cellular morphology
